For data set [1], the system named is Mycosphaerella graminicola; Anamorph: Septoria tritici. The data set is described as follows: Leaf Blotch of Wheat (SEPTTR) disease control. Type of data set: in vivo. Particulars: Zymoseptoria tritici; for pest or weed control at 100 ppm: rate 100 ppm; for pest or weed control at 121.5 g/ha: rate 121.5 g/H. The essentials: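 Protective or curative format: Septoria tritici inoculation either preceded or followed fungicide application to first-leaf Yuma wheat. Severity scored 0–100%; control expressed versus untreated.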

Data set [2] relates to Puccinia triticina; Synonym: Puccinia recondite f. Sp. Tritici. The data set is described as follows: Wheat Brown Rust (PUCCRT) disease control. Conditions: Puccinia triticina, topical; for pest or weed control at 100 ppm: rate 100 ppm; for pest or weed control at 121.5 g/ha: rate 121.5 g/H. Type of data set: in vivo. The essentials:
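Brown rust on first-leaf Yuma wheat: spore inoculation before or after spray application (acetone/Triton X-100 solution, or EC with Trycol in track spray), overnight 100% RH at 22 °C, disease developed at 24 °C. Severity scored 0–100% and converted to percent control against untreated.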

The mark [3] stands for this setting: 24 h, 1 Day Protectant, read-out: SEPTTR 1 DP disease control.
The mark [4] stands for this setting: 72 h, 3 Day Curative, read-out: SEPTTR 3 DC disease control.
[5] abbreviates: 24 h, 1 Day Protectant, read-out: PUCCRT 1 DP disease control.
[6] abbreviates: 72 h, 3 Day Curative, read-out: PUCCRT 3 DC disease control.

Where two headings read alike, the source gives them in different places.

Molecule `COc1ccnc(C(=O)N[C@H]2CCC[C@H](Cc3ccc(C)cc3)[C@@H](OCC(C)C)[C@H](C)OC2=O)c1O` [Compound F41] displayed a melting point of 129 to 131 °C. For the same molecule, the pest or weed control at 100 ppm in data set [1] (setting [3]) was in the range of 80 to 100%. Besides, the pest or weed control at 100 ppm in data set [1] (setting [4]) fell in the range of 80 to 100%. Moreover, the pest or weed control at 100 ppm in data set [2] (setting [5]) is 80 to 100%. In data set [2] (setting [6]), the pest or weed control at 100 ppm is 0 to 80%.

As to `COc1ccnc(C(=O)N[C@H]2CCC[C@H](Cc3ccc(C)cc3)[C@@H](Oc3ccccc3)[C@H](C)OC2=O)c1O` [Compound F49, 3-hydroxy-4-methoxy-N-((3S,7R,8R,9S)-9-methyl-7-(4-methylbenzyl)-2-oxo-8-phenoxyoxonan-3-yl)picolinamide], the melting point was 62 to 66 °C. Also, in data set [1] (setting [3]), the pest or weed control at 100 ppm lay in the range of 80 to 100%. The pest or weed control at 100 ppm in data set [1] (setting [4]) lay in the range of 80 to 100%. Besides, the pest or weed control at 100 ppm in data set [2] (setting [5]) lay within 80 to 100%. In addition, in data set [2] (setting [6]), the pest or weed control at 100 ppm is 0 to 80%.

As to `COc1ccnc(C(=O)N[C@H]2CCC[C@H](Cc3ccc(F)cc3F)[C@@H](OCc3ccccc3)[C@H](C)OC2=O)c1O` [Compound F52], the melting point was in the range of 68 to 72 °C. The pest or weed control at 100 ppm in data set [1] (setting [3]) was in the range of 80 to 100%. For the same molecule, in data set [1] (setting [4]), the pest or weed control at 100 ppm was 80 to 100%. Further, the pest or weed control at 100 ppm in data set [2] (setting [5]) fell in the range of 80 to 100%. Further, the pest or weed control at 100 ppm in data set [2] (setting [6]) fell in the range of 80 to 100%.

On to `COc1ccnc(C(=O)N[C@H]2CCC[C@H](Cc3ccc(F)cc3F)[C@@H](OCC(C)C)[C@H](C)OC2=O)c1O` [Compound F59], for which the melting point lay in the range of 69 to 72 °C. Besides, in data set [1] (setting [3]), the pest or weed control at 100 ppm is 80 to 100% and the pest or weed control at 121.5 g/ha lay within 80 to 100%. In addition, in data set [1] (setting [4]), the pest or weed control at 100 ppm is 80 to 100% and the pest or weed control at 121.5 g/ha fell in the range of 0 to 80%. For the same molecule, in data set [2] (setting [5]), the pest or weed control at 100 ppm is 80 to 100% and the pest or weed control at 121.5 g/ha fell in the range of 80 to 100%. In data set [2] (setting [6]), the pest or weed control at 100 ppm lay in the range of 80 to 100%.

Molecule `COc1ccnc(C(=O)N[C@H]2CCC[C@H](Cc3ccc(F)cc3F)[C@@H](OC(=O)c3ccco3)[C@H](C)OC2=O)c1O` [Compound F60] came in with a melting point of 93 to 97 °C. Besides, in data set [1] (setting [3]), the pest or weed control at 100 ppm fell in the range of 80 to 100% and the pest or weed control at 121.5 g/ha was in the range of 80 to 100%. The pest or weed control at 100 ppm in data set [1] (setting [4]) was in the range of 80 to 100%. In addition, in data set [2] (setting [5]), the pest or weed control at 100 ppm was 80 to 100% and the pest or weed control at 121.5 g/ha is 80 to 100%. For the same molecule, the pest or weed control at 100 ppm in data set [2] (setting [6]) is 80 to 100%.

On to `COc1ccnc(C(=O)N[C@H]2CCC[C@H](Cc3ccc(C)cc3)[C@@H](Oc3ccccc3)[C@H](C)OC2=O)c1OC(C)=O` [Compound F79, 4-methoxy-2-(((3S,7R,8R,9S)-9-methyl-7-(4-methylbenzyl)-2-oxo-8-phenoxyoxonan-3-yl)carbamoyl)pyridin-3-yl acetate], for which the melting point lay within 96 to 100 °C. Moreover, the pest or weed control at 100 ppm in data set [1] (setting [3]) fell in the range of 80 to 100%. Besides, the pest or weed control at 100 ppm in data set [1] (setting [4]) was 80 to 100%. For the same molecule, in data set [2] (setting [5]), the pest or weed control at 100 ppm is 80 to 100%. For the same molecule, in data set [2] (setting [6]), the pest or weed control at 100 ppm is 80 to 100%.

Molecule `COc1ccnc(C(=O)N[C@H]2CCC[C@H](Cc3ccc(C)cc3)[C@@H](OCC3CC3)[C@H](C)OC2=O)c1OCOC(C)=O` [Compound F127] yielded a melting point of 55 to 60 °C. Further, the pest or weed control at 100 ppm in data set [1] (setting [3]) was in the range of 80 to 100%. Also, the pest or weed control at 100 ppm in data set [1] (setting [4]) lay in the range of 80 to 100%. Further, the pest or weed control at 100 ppm in data set [2] (setting [5]) fell in the range of 80 to 100%. Also, the pest or weed control at 100 ppm in data set [2] (setting [6]) was 80 to 100%.

In turn, `COc1ccnc(C(=O)N[C@H]2CCC[C@H](Cc3ccc(C)cc3)[C@@H](Oc3ccccc3)[C@H](C)OC2=O)c1OCOC(C)=O` [Compound F134] registered a melting point of 71 to 75 °C. Also, the pest or weed control at 100 ppm in data set [1] (setting [3]) fell in the range of 80 to 100%. Besides, in data set [1] (setting [4]), the pest or weed control at 100 ppm lay in the range of 80 to 100%. Besides, the pest or weed control at 100 ppm in data set [2] (setting [5]) was in the range of 80 to 100%. Further, in data set [2] (setting [6]), the pest or weed control at 100 ppm lay in the range of 80 to 100%.

For the molecule `COc1ccnc(C(=O)N[C@H]2CCC[C@H](Cc3ccc(F)cc3F)[C@@H](OCCCc3ccccc3)[C@H](C)OC2=O)c1OCOC(C)=O` [Compound F141], the melting point is 40 to 45 °C. In addition, in data set [1] (setting [3]), the pest or weed control at 100 ppm was 80 to 100% and the pest or weed control at 121.5 g/ha lay within 80 to 100%. In data set [1] (setting [4]), the pest or weed control at 100 ppm lay within 80 to 100% and the pest or weed control at 121.5 g/ha was in the range of 0 to 80%. For the same molecule, in data set [2] (setting [5]), the pest or weed control at 100 ppm is 80 to 100% and the pest or weed control at 121.5 g/ha fell in the range of 80 to 100%. Besides, the pest or weed control at 100 ppm in data set [2] (setting [6]) lay within 0 to 80%.

Molecule `CCOCC(=O)OCOc1c(OC)ccnc1C(=O)N[C@H]1CCC[C@H](Cc2ccc(C)cc2)[C@@H](OCC2CC2)[C@H](C)OC1=O` [Compound F180] yielded a melting point of 50 to 55 °C. In addition, in data set [1] (setting [3]), the pest or weed control at 100 ppm lay within 80 to 100% and the pest or weed control at 121.5 g/ha lay within 80 to 100%. In data set [1] (setting [4]), the pest or weed control at 100 ppm fell in the range of 80 to 100% and the pest or weed control at 121.5 g/ha lay within 80 to 100%. Moreover, in data set [2] (setting [5]), the pest or weed control at 100 ppm fell in the range of 80 to 100% and the pest or weed control at 121.5 g/ha is 80 to 100%. Also, in data set [2] (setting [6]), the pest or weed control at 100 ppm is 80 to 100% and the pest or weed control at 121.5 g/ha is 0 to 80%.

Molecule `COCN(C(=O)OC(C)(C)C)[C@H]1CCC[C@H](CCC(C)C)[C@@H](OCCCC(F)(F)F)[C@H](C)OC1=O` [Compound F203] returned a melting point of 87 to 89 °C.

`C[C@@H]1OC(=O)[C@@H](NC(=O)OC(C)(C)C)CCC[C@H](C)[C@H]1Oc1ccccc1` [Compound F224] had a melting point of 144 to 145 °C.

Turning to `Cc1ccc(C[C@H]2CCC[C@H](NC(=O)OC(C)(C)C)C(=O)O[C@@H](C)[C@@H]2OCc2ccccc2)cc1` [Compound F229], the melting point was in the range of 108 to 110 °C.

As to `Cc1ccc(C[C@H]2CCC[C@H](N(C(=O)OC(C)(C)C)C(=O)OC(C)(C)C)C(=O)O[C@@H](C)[C@@H]2OCc2ccccc2)cc1` [Compound F230, tert-butyl N-[(3S,7R,8R,9S)-8-benzyloxy-9-methyl-2-oxo-7-(p-tolylmethyl)oxonan-3-yl]-N-tert-butoxycarbonyl-carbamate], the melting point lay within 164 to 166 °C.

`Cc1ccc(C[C@H]2CCC[C@H](N(C(=O)OC(C)(C)C)C(=O)OC(C)(C)C)C(=O)O[C@@H](C)[C@@H]2OCC(C)C)cc1` [Compound F232] displayed a melting point of 110 to 114 °C.

As to `Cc1ccc(C[C@H]2CCC[C@H](NC(=O)OC(C)(C)C)C(=O)O[C@@H](C)[C@@H]2OCC2CC2)cc1` [Compound F236], the melting point is 86 to 89 °C.

`COCN(C(=O)OC(C)(C)C)[C@H]1CCC[C@H](Cc2ccc(F)cc2F)[C@@H](OCc2ccccc2)[C@H](C)OC1=O` [Compound F254]: the melting point fell in the range of 108 to 115 °C.

In turn, `COCN(C(=O)OC(C)(C)C)[C@H]1CCC[C@H](Cc2ccc(F)cc2F)[C@@H](OC(=O)c2ccco2)[C@H](C)OC1=O` [Compound F260] returned a melting point of 45 to 48 °C.

What is called melting point is the temperature of the solid-liquid transition.

Values taken from patent US9265253B2, “Use of macrocyclic picolinamides as fungicides” (DOW AGROSCIENCES LLC, priority 2013, dated 2016).
